Laboratory results from PubChem BioAssay AID743267 (Broad Institute, 2014).

test system: human bronchial epithelial cells, CFTR corrector, plate reader; assay: rescue of ΔF508 CFTR function, airway epithelium – human bronchial epithelial cells, plate reader, cherry-pick, two tests, dose response (AID 743267); settings: measured here: test 1 replicate run

Going from `COc1ccc(CNC(=O)c2cc3c(c(-c4cccc(-c5ccc(C#N)cc5)c4)n2)[C@@H](CCO)N([S@](=O)C(C)(C)C)C3)cc1` to `CN1c2ccc(-c3ccc(C#N)cc3)cc2[C@H]2[C@H](CCN2S(=O)(=O)c2cccc(F)c2)[C@H]1CO`, the AC50 falls from > 50 µM to 0.128 µM.

Compared with `C[C@H]1CN([C@@H](C)CO)S(=O)(=O)c2ccc(-c3ccc(C#N)cc3)cc2O[C@@H]1CN(C)Cc1ccccn1`, `C[C@@H]1CN([C@H](C)CO)C(=O)c2cc(NS(=O)(=O)c3ccc(Cl)cc3)ccc2O[C@@H]1CN(C)Cc1ccc(-c2ccccc2)cc1` is 14-fold higher in AC50: 3.39 µM for the first, 46.3 µM for the second.

First: COc1ccc(-c2ccc3c(c2)[C@H]2[C@H](CCN2S(=O)(=O)c2ccc(OC)cc2)[C@H](CO)N3C)cc1
Second: COc1ccc(-c2ccc3c(c2)[C@H]2[C@H](CCN2S(=O)(=O)c2ccc(OC)cc2)[C@@H](CO)N3)cc1
The AC50 of the first is 6.3-fold lower: 1.17 µM for the first, 7.37 µM for the second.

First: COc1ccc(S(=O)(=O)Nc2ccc3c(c2)C(=O)N([C@H](C)CO)C[C@@H](C)[C@@H](CN(C)Cc2ccc(C(F)(F)F)cc2)O3)cc1
Second: COc1ccc(S(=O)(=O)Nc2ccc3c(c2)C(=O)N([C@H](C)CO)C[C@@H](C)[C@@H](CN(C)Cc2ccc(Cl)c(Cl)c2)O3)cc1
The AC50 of the first is higher: > 50 µM for the first, 4.82 µM for the second.

First: CCS(=O)(=O)N1CC(=O)N2[C@H](CO)[C@@H](c3ccc(C#CCC(C)C)cc3)[C@@H]2C1
Second: COc1ccccc1S(=O)(=O)N1CC[C@@H]2[C@@H](CO)N(C)c3ccc(-c4ccc(F)cc4)cc3[C@@H]21
The AC50 of the first is 220-fold lower: 0.0676 µM for the first, 15 µM for the second.

same assay, conditions: measured here: test 2 replicate run

Compared with `O=C1C=C(NCCc2cc(Br)c(O)c(Br)c2)C(=O)c2ncccc21`, `CN(C)CCNc1ccc2ncn3c4ccc(O)cc4c(=O)c1c23` is 1.6-fold lower in AC50: 3.33 µM for the first, 2.03 µM for the second.

Compared with `Cc1c(C(=O)N/N=C/c2c(O)ccc3ccccc23)nnn1-c1nonc1N`, `O=C(N/N=C/c1c(O)ccc2ccccc12)C(=O)N1CCCC1` is 27-fold higher in AC50: 0.462 µM for the first, 12.6 µM for the second.

Going from `COc1nc(C)nc(NC(=O)NS(=O)(=O)c2ccccc2Cl)n1` to `COc1ccc(S(=O)(=O)NCc2ccccn2)cc1NC(=O)c1ccccc1F`, the AC50 falls from > 50 µM to 1.32 µM.

`COC(=O)Cn1c(=NC(=O)c2cc(-c3cccs3)nc3ccccc23)sc2cc(S(N)(=O)=O)ccc21` and `Cc1cccc(C(=O)N(Cc2ccco2)c2c(N)n(Cc3ccccc3)c(=O)[nH]c2=O)c1` cannot be ordered by AC50: > 50 µM for the first, > 50 µM for the second.

Going from `Cc1cccc(NC(=O)CN2CCN(C(=O)CN3C(=O)NC4(CC(C)CC(C)(C)C4)C3=O)CC2)c1C` (stereo not drawn) to `COc1cccc(N2CCN(C(=O)c3ccc(CS(=O)c4ccc(C)cc4)o3)CC2)c1` (stereo not drawn), the AC50 falls from 2.69 µM to 0.539 µM (5-fold).

Going from `COc1ccc(CCNc2c3ccccc3nc3ccccc23)cc1OC` to `O=c1ccc2c(-c3ccccc3)c3ccc(O)cc3oc-2c1`, the AC50 falls from 3.9 µM to 2.2 µM (1.8-fold).

`Cn1cccc1/C=C1\SC(=Nc2cccc(O)c2)NC1=O` and `COc1cc(/C=C2\SC(=S)N(NC(=O)c3ccncc3)C2=O)ccc1O` are within 1.5-fold of each other in AC50: 13.5 µM for the first, 13.2 µM for the second.

Compared with `COc1cc(NC(=O)COC(=O)c2n[nH]c3ccccc23)c(C)cc1[N+](=O)[O-]`, `COc1cc(/C=N/NC(=O)c2cc(-c3c(C)nn(-c4ccccc4)c3C)n[nH]2)ccc1O` is 4.7-fold lower in AC50: 36.6 µM for the first, 7.78 µM for the second.

Compared with `N=c1sccn1CC(=O)Nc1ccc(S(N)(=O)=O)cc1`, `COc1ccc(NC(=O)C(=O)NCC2CCCN2S(=O)(=O)c2cccs2)cc1` (stereo not drawn) is 4.1-fold lower in AC50: 14.9 µM for the first, 3.63 µM for the second.

`Cc1cc2nnc(SCC(=O)NCc3ccco3)n2c2ccccc12` and `COc1ccccc1NC(=S)N(Cc1ccco1)Cc1cc2cc(C)cc(C)c2[nH]c1=O` are within 1.5-fold of each other in AC50: 6.63 µM for the first, 7 µM for the second.

Compared with `COc1cc(C(=O)c2cocc2C(=O)c2ccc3c(c2)OCO3)cc(OC)c1OC`, `COc1ccc(S(=O)(=O)Nc2cc3c(cc2C(C)=O)OCO3)cc1` is 31-fold higher in AC50: 0.451 µM for the first, 13.9 µM for the second.

Going from `COc1ccc2c(c1)sc(N)[n+]2Cc1cc(C)cc2cccnc12` to `Cc1cccc(N(C)C(=O)c2cc3c(=O)[nH]c4ccc(C)cc4c3s2)c1`, the AC50 rises from 1.04 µM to 4.72 µM (4.5-fold).

First: COc1ccc(S(=O)(=O)N2CCN(CCOc3ccccc3Cl)CC2)cc1OC
Second: CCN1CCN(c2cc(C)c3cc(NC(=O)c4ccc(OC)c(OC)c4)ccc3n2)CC1
The AC50 of the first is 24-fold higher: 38.7 µM for the first, 1.61 µM for the second.

Compared with `CC(=O)Nc1sc2c(c1-c1nc3ccccc3s1)CN(C(C)C)CC2`, `CC(=O)c1cccc(Nc2c3c(nc4ccccc24)CCC3)c1` is 1.9-fold higher in AC50: 1.43 µM for the first, 2.69 µM for the second.

Compared with `CC1=NCCc2c1[nH]c1cc(O)ccc21`, `Cc1cnc(NC(=O)c2ccc3c(c2)OCCO3)s1` is 8.8-fold lower in AC50: 41.4 µM for the first, 4.71 µM for the second.

First: Cc1cccc(NS(=O)(=O)c2ccc(-c3cnc(C4CC4)o3)cc2)c1
Second: COc1ccccc1NS(=O)(=O)c1cc(-c2cnc(C3CC3)o2)ccc1C
The AC50 of the first is 6-fold lower: 1.59 µM for the first, 9.51 µM for the second.

Going from `CC1CN(S(=O)(=O)c2cccc(C(=O)Nc3cc(Cl)ccc3N3CCOCC3)c2)CC(C)O1` (stereo not drawn) to `CN(Cc1ccccc1)S(=O)(=O)c1ccc(NC(=S)NC(=O)C2CCCC2)cc1`, the AC50 falls from > 50 µM to 5.32 µM.

First: COc1ccc(NC(=O)c2nc(C)c(C3(C)CC(c4ccccc4)=NO3)s2)cc1 (stereo not drawn)
Second: COc1ccc(S(=O)(=O)N(C(=O)C(C)C)c2ccc3oc(=O)sc3c2)cc1
The AC50 of the first is 2.2-fold lower: 3.49 µM for the first, 7.6 µM for the second.

Compared with `CN(C)S(=O)(=O)c1ccc2c(c1)/C(=C/c1cc3c([nH]1)CCCC3)C(=O)N2`, `CCOC(=O)c1c(C)[nH]c(C(=O)N/N=C\c2ccccc2O)c1C` is 2-fold lower in AC50: 6.59 µM for the first, 3.36 µM for the second.

`Cc1nc(C)c(C(=O)NN=Cc2ccc(N(CCCl)CCCl)cc2)s1` and `Cc1ccc(C(=O)NC(=S)NNC(=O)c2ccccc2O)cc1` cannot be ordered by AC50: > 50 µM for the first, > 50 µM for the second.

Going from `CCCCC(=NCCc1c(C)[nH]c2ccccc12)C1=C(O)CC(c2ccccc2)CC1=O` (stereo not drawn) to `O=C(NCc1ccccc1)C1Cc2c(-c3ccc(Cl)cc3)ccnc2O1` (stereo not drawn), the AC50 falls from 3.92 µM to 2.18 µM (1.8-fold).

`O=C1c2cccc3c([N+](=O)[O-])ccc(c23)C(=O)N1Cc1cccnc1` showed an AC50 of 10.2 µM.
